For 14 compounds, GI50 and TGI results are on record in PubChem BioAssay (NCI).

Values joined by “and” are separate entries in the source; they are usually repeats but may differ in a detail not shown here. Identical values can stand only once.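 These data come from cells grown in 96-well plates and exposed to compound for 48 hours at five concentrations. At the GI50, growth is halved. The concentration for full growth arrest is given as TGI.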

Among the test systems are IGROV1 ovarian; DU-145 prostate; K-562 leukemia; LOX IMVI melanoma; PC-3 prostate; OVCAR-8 ovarian; OVCAR-5 ovarian; HOP-92 NSCLC; A498 renal; SR leukemia.
Common to all, as to experiment: DTP human tumour cell line panel, 48 h

Turning to `O=C1c2cc(Cl)ccc2-c2c1c1ccc([N+](=O)[O-])cc1c(=O)n2CCCBr`, the GI50 (usually the concentration at which growth is held to half of that of the control) in the assay on IGROV1 ovarian was 5.77 µM; in the assay with DU-145 prostate, 4 µM; in the assay on K-562 leukemia, 4.46 µM; in the assay on LOX IMVI melanoma, 2.37 µM; in the assay on PC-3 prostate it was 19.2 µM; in the assay on OVCAR-8 ovarian, 8.35 µM. In addition, the GI50 in the assay with OVCAR-5 ovarian was greater than 100 µM; in the assay on HOP-92 NSCLC it was 0.539 µM; with A498 renal it was 24.2 µM. Also, the TGI – broadly, the concentration at which net growth stops – was 90.8 µM with IGROV1 ovarian; greater than 100 µM in the assay with DU-145 prostate; greater than 100 µM in the assay on K-562 leukemia; 24 µM with LOX IMVI melanoma; greater than 100 µM with PC-3 prostate; greater than 100 µM in the assay on OVCAR-8 ovarian. Also, the TGI was greater than 100 µM with OVCAR-5 ovarian, 8.98 µM in the assay with HOP-92 NSCLC and greater than 100 µM in the assay on A498 renal.
Consider `Cn1c2c(c3ccc(Cl)c(Cl)c31)C(C#N)C1(CCNCC1)NC2=O` (stereo not given), for which the GI50 in the assay with IGROV1 ovarian was 1.66 µM; in the assay with DU-145 prostate it was 1.56 µM; in the assay on K-562 leukemia it was 1.47 µM; in the assay with LOX IMVI melanoma, 1.54 µM; in the assay with PC-3 prostate, 1.55 µM; in the assay on OVCAR-8 ovarian it was 2.83 µM. Also, the results for the GI50 with OVCAR-5 ovarian, in the assay on HOP-92 NSCLC and in the assay with A498 renal were 1.49 µM, 0.484 µM and 1.24 µM, respectively. Besides, the TGI with IGROV1 ovarian stood at 3.83 µM; in the assay on DU-145 prostate it was 3.03 µM; in the assay with K-562 leukemia it was 2.89 µM; with LOX IMVI melanoma, 3.39 µM; in the assay on PC-3 prostate, 4.99 µM; in the assay on OVCAR-8 ovarian it was 8.85 µM. In addition, the TGI was 4.68 µM in the assay with OVCAR-5 ovarian, 2.37 µM with HOP-92 NSCLC and 2.95 µM with A498 renal.
Regarding `CC1C(=O)OCC2=CCN3CCC(OC(=O)C(C)C1(C)O)C23` (stereo not given), the TGI in the assay with IGROV1 ovarian, in the assay on DU-145 prostate, in the assay on K-562 leukemia, with LOX IMVI melanoma, with PC-3 prostate and in the assay with OVCAR-8 ovarian was greater than 100 µM throughout. Also, the total growth inhibition concentration (TGI) with OVCAR-5 ovarian, with HOP-92 NSCLC and in the assay on A498 renal was greater than 100 µM each time.
For `O=c1cccc(C2CC(CO)C3CCCCN3C2)[nH]1` (stereo not given), the concentration for total growth inhibition (TGI) in the assay on IGROV1 ovarian, in the assay with DU-145 prostate, in the assay with K-562 leukemia, in the assay on LOX IMVI melanoma, in the assay on PC-3 prostate and with OVCAR-8 ovarian was greater than 100 µM throughout. For the same compound, the TGI with OVCAR-5 ovarian, with HOP-92 NSCLC and with A498 renal was greater than 100 µM in each case.
Turning to `COc1cc2ncnc(Nc3ccc(F)c(Cl)c3)c2cc1NC(=O)/C=C/CN1CCCCC1`, the TGI in the assay with IGROV1 ovarian is 2.96 µM and 2.07 µM; with DU-145 prostate it was 11.4 µM and > 10 µM; in the assay on K-562 leukemia, 5.12 µM and > 8.09 µM; with LOX IMVI melanoma, 3.27 µM and 3.24 µM; in the assay with PC-3 prostate, 10.5 µM and > 10 µM; in the assay on OVCAR-8 ovarian it was 5.35 µM and > 6.21 µM. Further, the concentration for total growth inhibition (TGI) was 8.45 µM and > 8.15 µM in the assay on OVCAR-5 ovarian; 2.43 µM and 5.63 µM with HOP-92 NSCLC; 4.04 µM and 3.71 µM in the assay on A498 renal. The GI50 is 0.365 µM and 0.401 µM with DU-145 prostate; 1.65 µM and 2.05 µM in the assay with K-562 leukemia; 1.75 µM and 1.69 µM in the assay with LOX IMVI melanoma; 2.53 µM and 2.78 µM with PC-3 prostate; 1.28 µM and 1.64 µM with OVCAR-8 ovarian; 1.19 µM and 1.17 µM in the assay on OVCAR-5 ovarian. For the same compound, the GI50 in the assay with HOP-92 NSCLC was 0.0672 µM and 0.643 µM; in the assay with A498 renal, 0.812 µM and 0.556 µM.
As to `NC(N)=NCCC1OC(=O)C2=C1c1c(O)ccc3nccc(c13)O2` (stereo not given), the GI50 in the assay on IGROV1 ovarian, in the assay with DU-145 prostate, in the assay on K-562 leukemia, in the assay on LOX IMVI melanoma, in the assay on PC-3 prostate and in the assay with OVCAR-8 ovarian was greater than 100 µM in each case. In addition, the GI50 in the assay on SR leukemia, in the assay on OVCAR-5 ovarian and with A498 renal was greater than 100 µM in each case. The TGI with IGROV1 ovarian, in the assay on DU-145 prostate, with K-562 leukemia, in the assay with LOX IMVI melanoma, in the assay on PC-3 prostate and in the assay with OVCAR-8 ovarian was greater than 100 µM in each case. Moreover, the TGI in the assay on SR leukemia, in the assay with OVCAR-5 ovarian and with A498 renal was greater than 100 µM in each case.
For the compound `CCN(CC)C(=S)SC`, the concentration for total growth inhibition (TGI) with IGROV1 ovarian, in the assay on DU-145 prostate, in the assay with K-562 leukemia, with LOX IMVI melanoma, with PC-3 prostate and in the assay with OVCAR-8 ovarian was greater than 100 µM each time. The TGI with OVCAR-5 ovarian, in the assay on HOP-92 NSCLC and with A498 renal was greater than 100 µM in each case.
Regarding `Cc1cc(S(=O)(=O)NC#N)c(S/C(=N\Nc2ccc([N+](=O)[O-])cc2)c2ccc(Cl)cc2)cc1Cl`, the GI50 was greater than 100 µM with IGROV1 ovarian; 17.6 µM in the assay with DU-145 prostate; 35.3 µM in the assay with K-562 leukemia; 30.1 µM in the assay with LOX IMVI melanoma; 33.6 µM in the assay with PC-3 prostate; 31.7 µM in the assay with OVCAR-8 ovarian. Besides, the GI50 in the assay with OVCAR-5 ovarian is 44 µM; with HOP-92 NSCLC, 19.4 µM. Also, the TGI in the assay on IGROV1 ovarian is greater than 100 µM; in the assay on DU-145 prostate it was greater than 100 µM; in the assay with K-562 leukemia, 80.3 µM; with LOX IMVI melanoma, greater than 100 µM; in the assay on PC-3 prostate, greater than 100 µM; with OVCAR-8 ovarian, greater than 100 µM. In addition, the values for the TGI in the assay on OVCAR-5 ovarian, with HOP-92 NSCLC and in the assay on A498 renal were greater than 100 µM, 96.9 µM and 2.3 µM, respectively.
As to `CCOc1cccc(/C=N/NC(=O)C(=O)Nc2cccc(C(F)(F)F)c2)c1O`, the GI50 in the assay on IGROV1 ovarian is 1.3 µM; in the assay with DU-145 prostate it was 3.22 µM; in the assay with K-562 leukemia, 2 µM; in the assay on LOX IMVI melanoma, 1.44 µM; with PC-3 prostate, 1.95 µM; in the assay on OVCAR-8 ovarian, 1.29 µM. Further, the GI50 is 0.705 µM in the assay on SR leukemia, 5.67 µM in the assay on OVCAR-5 ovarian and 8.85 µM in the assay with A498 renal. Also, the TGI in the assay on IGROV1 ovarian was 25.8 µM; in the assay on DU-145 prostate, greater than 100 µM; in the assay on K-562 leukemia it was greater than 100 µM; in the assay with LOX IMVI melanoma, 22.2 µM; in the assay on PC-3 prostate, greater than 100 µM; in the assay on OVCAR-8 ovarian it was greater than 100 µM. For the same compound, the figures for the TGI with SR leukemia, with OVCAR-5 ovarian and with A498 renal were 15.4 µM, greater than 100 µM and 76.2 µM, respectively.
Take `O=C(O)C1CCCCC1C(=O)O.[NH-]C1CCC1.[NH2-].[Pt+2]` (stereo not given): the GI50 was 57.5 µM in the assay on IGROV1 ovarian; 12.5 µM in the assay on DU-145 prostate; 29.6 µM in the assay with K-562 leukemia; 6.35 µM with LOX IMVI melanoma; greater than 100 µM in the assay with PC-3 prostate; greater than 100 µM with OVCAR-8 ovarian. For the same compound, the GI50 with SR leukemia is 3.72 µM; with OVCAR-5 ovarian, 18.3 µM; in the assay on HOP-92 NSCLC it was 19.4 µM. The TGI is greater than 100 µM in the assay on IGROV1 ovarian; 25 µM in the assay on DU-145 prostate; greater than 100 µM with K-562 leukemia; 23.3 µM in the assay on LOX IMVI melanoma; greater than 100 µM with PC-3 prostate; greater than 100 µM with OVCAR-8 ovarian. In addition, the TGI in the assay with SR leukemia was greater than 100 µM; in the assay with OVCAR-5 ovarian it was 34 µM; in the assay with HOP-92 NSCLC it was 44 µM.
For the compound `Cc1nc2sccn2c1-c1csc(Nc2cccc(Cl)c2C)n1`, the GI50 in the assay on IGROV1 ovarian was 8.83 µM; in the assay with DU-145 prostate, 8.45 µM; in the assay on K-562 leukemia, 2.12 µM; in the assay with LOX IMVI melanoma, 6.5 µM; in the assay on PC-3 prostate it was 3.72 µM; in the assay on OVCAR-8 ovarian, 5.84 µM. Also, the figures for the GI50 in the assay with SR leukemia, with OVCAR-5 ovarian and in the assay with A498 renal were 3.46 µM, 24 µM and 1.45 µM, respectively. Also, the TGI with IGROV1 ovarian is 73.2 µM; in the assay with DU-145 prostate it was 72 µM; with K-562 leukemia it was greater than 100 µM; in the assay with LOX IMVI melanoma it was 20.6 µM; in the assay with PC-3 prostate, 87.3 µM; in the assay on OVCAR-8 ovarian it was 47.1 µM. For the same compound, the values for the TGI in the assay with SR leukemia, in the assay with OVCAR-5 ovarian and with A498 renal were 53.1 µM, greater than 100 µM and 17.5 µM, respectively.
Take `CC[PH+](CC)CC.O=COC1OC([S-])C(OC=O)C(OC=O)C1OC=O.[Au+]` (stereo not given): the GI50 with IGROV1 ovarian was 1.2 µM; with DU-145 prostate, 1.58 µM; in the assay on K-562 leukemia, 0.605 µM; in the assay with LOX IMVI melanoma, 0.902 µM; in the assay with PC-3 prostate, 1.66 µM; in the assay on OVCAR-8 ovarian it was 2.13 µM. The results for the GI50 with OVCAR-5 ovarian, in the assay on HOP-92 NSCLC and in the assay on A498 renal were 1.89 µM, 2.04 µM and 1.86 µM, respectively. Also, the total growth inhibition concentration (TGI) is 2.62 µM in the assay with IGROV1 ovarian; 3.33 µM with DU-145 prostate; greater than 100 µM with K-562 leukemia; 2.41 µM in the assay with LOX IMVI melanoma; 3.54 µM in the assay with PC-3 prostate; 5.55 µM in the assay with OVCAR-8 ovarian. Moreover, the figures for the TGI with OVCAR-5 ovarian, in the assay on HOP-92 NSCLC and in the assay with A498 renal were 3.53 µM, 3.66 µM and 3.29 µM, respectively.
On to `Cc1cc(Cl)ccc1Nc1nc(C(F)(F)F)ccc1C(=O)N/N=C/c1ccc([N+](=O)[O-])cc1`, for which the GI50 with IGROV1 ovarian is 2.21 µM; in the assay with DU-145 prostate, 1.78 µM; in the assay with K-562 leukemia, 1.43 µM; in the assay with LOX IMVI melanoma, 1.16 µM; in the assay on PC-3 prostate, 0.598 µM; with OVCAR-8 ovarian, 1.15 µM. Moreover, the values for the GI50 with OVCAR-5 ovarian, with HOP-92 NSCLC and in the assay with A498 renal were 2.99 µM, 1.34 µM and 1.41 µM, respectively. Moreover, the TGI in the assay on IGROV1 ovarian was 12.9 µM; with K-562 leukemia, greater than 24.8 µM; in the assay on OVCAR-5 ovarian, greater than 100 µM; with HOP-92 NSCLC it was 5.47 µM; in the assay on A498 renal it was 7.1 µM.
For `COC(=O)c1nc(Cl)nc(Cl)c1Cl`, the TGI in the assay with IGROV1 ovarian was 66 µM; in the assay with DU-145 prostate it was greater than 100 µM; in the assay with K-562 leukemia, 31.9 µM; in the assay on LOX IMVI melanoma it was 29.6 µM; in the assay with PC-3 prostate, 34.9 µM; in the assay with OVCAR-8 ovarian it was 54.5 µM. Also, the figures for the total growth inhibition concentration (TGI) in the assay on SR leukemia, in the assay on OVCAR-5 ovarian and in the assay with HOP-92 NSCLC were 58.7 µM, 52.3 µM and 42.9 µM, respectively.
